These results are taken from publication PMC3382599, “The Anti-Tumor Effect of A3 Adenosine Receptors Is Potentiated by Pulsed Electromagnetic Fields in Cultured Neural Cancer Cells” (PLoS ONE, 2012).

The target of the test is T1, A2BARs (rat cortical neurons) (Rattus norvegicus, UniProt P29276).
T1 construct: gene Adora2b; native receptor in membranes of primary cortical neurons from day-18 rat embryos
T1 sequence (P29276 1-332): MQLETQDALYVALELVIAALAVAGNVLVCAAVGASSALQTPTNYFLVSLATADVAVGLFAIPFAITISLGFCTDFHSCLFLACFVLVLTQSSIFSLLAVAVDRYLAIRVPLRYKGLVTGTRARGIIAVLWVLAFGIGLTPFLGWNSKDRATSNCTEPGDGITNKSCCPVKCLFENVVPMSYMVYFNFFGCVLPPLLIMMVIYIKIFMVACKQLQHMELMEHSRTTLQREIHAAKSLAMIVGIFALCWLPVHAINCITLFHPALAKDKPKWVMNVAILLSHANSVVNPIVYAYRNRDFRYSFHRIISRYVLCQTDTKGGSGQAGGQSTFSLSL
Kind of test: radioligand saturation binding, membranes. The following applies: rat cortical neuron membranes, no PEMF; labelled compound. The source says:
radioligand saturation binding, membranes on A2BARs (rat cortical neurons)

Usually Kd stands for the free concentration of one partner at which half of the binding sites on the other are occupied at equilibrium, for simple one-to-one binding. A higher Kd goes with weaker binding. In turn, `CCCn1c(=O)c2[nH]c(-c3cc(OCC(=O)Nc4ccc5c(c4)OCO5)nn3C)nc2n(CCC)c1=O` [[3H]-MRE 2029F20, [^3H]-N-benzo [1], [3]dioxol-5-yl-2-[5-(2,6-dioxo-1,3-dipropyl-2,3,6,7-tetrahydro-1H-purin-8-yl)-1-methy-1H-pyrazol-3-yl-oxy]-acetamide] gave a Kd of 1.52 ± 0.11 nM.
